From US20030219894A1, “Induction of insulin-producing cells” (JCR Pharmaceuticals Co., Ltd., priority 2002, published 2003)

Assays:
Assay type in all cases: cell-based
mouse fetal hepatocytes [1] = assay: RT-PCR analysis of insulin 1 and 2 gene expression in cultured fetal hepatocytes with medium supplements; conditions: for induction of insulin 1 and 2 gene expression: supplement separately added to DMEM/F12 containing 10% FBS
Protocol: For preparing fetal hepatocytes, the liver of fetal ICR mice (embryonic day 13.5) was excised and treated with 0.1% trypsin-phosphate-buffered saline for 5 min at 37° C. A culture medium solution then was added, and the mixture was filtered through a nylon membrane (#200). The cell suspension thus obtained was centrifuged at 50 g for 5 min. The cell pellet was suspended in a medium consisting of 1:1 DMEM/F12 (Sigma D6421) supplemented with 10% fetal bovine serum, L-glutamine (2 mmol/L), β-mercaptoethanol (β-ME), (50 μmol/L), penicillin (100,000 U/L) and streptomycin (100 mg/L). The formula of the 1:1 DMEM/F12 (Dulbecco's Modified Eagle's Medium/Ham's Nutrient Mixture F-12: Sigma D6421) was as follows (in g/L): Ca2Cl2/2H2O (0.1545), CuSO4/5H2O (0.0000013), Fe(NO3)3/9H2O (0.00005). […]
Both insulin 1 and 2 genes were clearly expressed under the culture conditions used, as determined by RT-PCR analysis. […] Each of these supplements was separately added to the DMEM/F12 containing 10% FBS, and effects on insulin expression was evaluated in thus formed different media. […]

[2] = system: mouse embryonic fibroblasts (MEF); assay: RT-PCR analysis of insulin 1 and 2 gene expression in mouse embryonic fibroblasts (negative control cells); conditions: MEF from fetal limbs (ED13.5), medium supplemented with nicotinamide; FIG. 1
Protocol: (§1) Both insulin 1 and 2 genes were clearly expressed under the culture conditions used, as determined by RT-PCR analysis. It was assumed that some of the supplements (nicotinamide, EGF, insulin or dexamethasone) to the culture medium were responsible for the expression of the insulin genes in the hepatocytes. Each of these supplements was separately added to the DMEM/F12 containing 10% FBS, and effects on insulin expression was evaluated in thus formed different media. When cultured in a medium not supplemented with nicotinamide (containing just 0.0165 mmol/L of nicotinamide), the mouse fetal hepatocytes either din not express the insulin 1 or 2 gene at all, or did expressed them but only very poorly (FIG. 1). […] As a negative control, mouse embryonic fibroblasts (MEF) were prepared from fetal limbs (ED13.5), and cultured under the same conditions. […] Immunohistochemistry using anti-insulin antibody was employed to confirm that a high-concentration of nicotinamide was requited for the differentiation of mouse fetal hepatocytes into insulin-producing cells.

mouse fetal hepatocytes [3] = assay: Immunohistochemistry using anti-insulin antibody; conditions: medium supplemented with nicotinamide; FIG. 3 vs FIG. 2
Description: Fetal hepatocytes were fixed with 4% paraformaldehyde in 0.1 M phosphate buffer and stained by direct immunoperoxidase method using a guinea pig anti-pig insulin antibody (Zymed Laboratories, South San Francisco, Calif.) and a peroxidase-labeled pig anti-guinea pig IgG (DAKO Japan, Kyoto).
as §1

NC(=O)c1cccnc1 [nicotinamide]
expression of the insulin 1 and 2 genes (mouse fetal hepatocytes [1]; medium supplemented with 10 mmol/L of nicotinamide, DMEM/F12 containing 10% FBS, FIG. 1): markedly induced | expression of the insulin 1 and 2 genes in MEF [2]: expressed | generation of insulin-positive cells (anti-insulin immunostaining) (mouse fetal hepatocytes [3]): led to generation of insulin-positive cells

EGF: epidermal growth factor (EGF), culture medium supplement (NSDSECPLSHDGYCLHDGVCMYIEALDKYACNCVVGYIGERCQYRDLKWWELR; Epidermal growth factor; UniProt P01133 971-1023, looked up)
induction of insulin 1 and 2 gene expression (mouse fetal hepatocytes [1]): either had no effect or had only a marginal effect

insulin: insulin, culture medium supplement (172 nmol/L)
induction of insulin 1 and 2 gene expression (mouse fetal hepatocytes [1]): either had no effect or had only a marginal effect
